Where a SMILES comes first, the peptide text is derived from it. Bridges are numbered along the chain shown (N, C = ends). The star is where a group is joined. Pentanoyl(4-Me) = CC(C)CCC(=O)*
Legend:
[1] = molecular target: T1, C1a receptor (C1a-type calcitonin receptor) (Rattus norvegicus, UniProt P32214); assay: C1a/293 competitive binding, displacement of [125I]-human calcitonin (Example C); details: HEK293 plasma membranes (C1a/293), [125I]-human calcitonin 20 pM
T1 construct: expressed in transfected cells
T1 sequence (P32214 25-479 isoform P32214-2 limits assumed): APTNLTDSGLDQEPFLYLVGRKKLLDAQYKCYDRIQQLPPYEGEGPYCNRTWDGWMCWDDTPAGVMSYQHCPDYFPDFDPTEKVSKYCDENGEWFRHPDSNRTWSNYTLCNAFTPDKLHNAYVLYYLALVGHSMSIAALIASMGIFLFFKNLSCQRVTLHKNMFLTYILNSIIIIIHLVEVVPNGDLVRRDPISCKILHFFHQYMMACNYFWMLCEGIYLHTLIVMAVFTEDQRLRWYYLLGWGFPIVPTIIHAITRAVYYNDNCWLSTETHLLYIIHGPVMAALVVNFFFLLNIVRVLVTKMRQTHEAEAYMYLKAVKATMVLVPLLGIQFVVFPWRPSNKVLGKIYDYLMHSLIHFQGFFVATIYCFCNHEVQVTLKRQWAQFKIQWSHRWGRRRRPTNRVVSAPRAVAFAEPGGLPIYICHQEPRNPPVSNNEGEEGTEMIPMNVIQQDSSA
Description: Peptide compounds of the present invention may be evaluated for binding to the C1a receptor using the procedures described in Example C. The C1a receptor is the predominant mammalian calcitonin receptor subtype. C1a pcDNA construction and transfection were carried out as previously described (Albrandt et al. 1993, FEBS Letters, 325:225-232). HEK293 cell lines showing stable expression of the rat C1a-type calcitonin receptor (C1a/293) or the human C1a-type calcitonin receptor (1154/293) were selected by G418 resistance and limiting dilution culture methods. Plasma membranes were collected from homogenized HEK293 cells and used in the receptor binding assay. Individual test peptides at concentrations spanning 6 log units starting at around 10^-6 M were examined for their ability to displace [^125 I]-human calcitonin from the plasma membrane preparation using a 96-well microtiter plate format and scintillation counting with a Wallac LKB Beta plate counter. Competitive binding curves were constructed. Non-specific binding was measured in the presence of 100 nM calcitonin. Peptide potencies (IC50 's for competitive binding) were calculated by non-linear regression using Prism™ (version 2.01, GraphPAD Software, San Diego, Calif.).
C1a/293 Competitive Binding Studies:
Compounds were evaluated for competition in binding to the C1a receptor as follows:
(§1) Reference peptides used in these studies were purchased from Bachem (Torrance, Calif.). All other chemicals were of the highest commercial grade. [^35 S]-GTPγS was purchased from NEN Life Science Products, Inc., Pittsburgh, Pa. [^125 I]-human calcitonin was purchased from Amersham Pharmacia Biotech, Inc., Piscataway, N.J.
(§2) Methods for C1a pcDNA construction and transfection have been previously described (Albrandt, et al. 1993). HEK293 cell lines stably expressing the rat C1a-type calcitonin receptor (C1a/293) or the human C1a-type calcitonin receptor (1154/293) were selected by G418 resistance and limiting dilution culture methods.
(§3) Confluent cells were detached from tissue culture flasks by incubation with 5 mM EDTA in PBS. Cells were homogenized in ice-cold 20 mM HEPES, pH 7.4 with a Polytron homogenizer. Plasma membranes were collected using three cycles of washing in fresh buffer followed by centrifugation for 15 minutes at 48,000×g. The final membrane pellet was resuspended in 20 mM HEPES buffer containing 0.2 mM phenylmethylsulfonyl fluoride (PMSF) and stored at -70° C.
Assay buffer contained 5 μg/mL bestatin, 1 μg/mL phosphoramidon, 1 mg/mL bovine serum albumin (fraction V), 1 mg/mL bacitracin, 1 mM MgCl2, and 20 mM HEPES, pH 7.4. Membranes (2-5 μg membrane protein/well), [^125 I]-human calcitonin (20 pM), and peptides were combined in 200 μL buffer in 96-well microtiter plates. After a 60 minute incubation at room temperature, well contents were harvested onto polyethyleneimine-treated GF/B glass fiber pads using a Tomtec Mach II plate harvestor (Hamden, Conn.). Dried pads were combined with scintillant and counted on a Wallac LKB Beta Plate scintillation counter (Gaithersburg, Md.). For competitive binding curves, samples were run in duplicate over a 6 log concentration range starting at 10^-6 or 10^-7 M. Non-specific binding was measured in the presence of 100 nM human calcitonin.

[2] = molecular target: T1, C1a receptor (C1a-type calcitonin receptor); assay: biochemical; details: HEK293 plasma membranes, [35S]-GTPγS 200 pM; read-out: ED50 (nM) Example B (C1a GTPγS)
Text: Peptide compounds of the present invention may be evaluated for agonist activity using the procedures described in Example B. The plasma membrane preparation of a 7-transmembrane-G-protein coupled receptor (GPCR) contains not only the receptor but also the G-proteins which constitute the first step in the intracellular signal transduction process when the receptor is activated by an agonist ligand. […] Agonist activation of a GPCR is accompanied by displacement of GDP by GTP from this site. Thus, measurement of the binding of a radiolabelled ligand, namely [^35 S]-GTPγS, for this binding site constitutes a measure of agonist potency for a given ligand. For agonism at the C1a receptor, a similar membrane preparation to that described below for the C1a binding studies is used. C1a pcDNA construction and transfection were carried out as previously described (Albrandt et al. 1993, FEBS Letters, 325:225-232). HEK293 cell lines showing stable expression of the rat C1a-type calcitonin receptor (C1a/293) or the human C1a-type calcitonin receptor (1154/293) were selected by G418 resistance and limiting dilution culture methods. Plasma membranes were collected from homogenized HEK293 cells and used in the [^35 S]-GTPγS assay. Individual test peptides at concentrations spanning 6 log units starting at around […] were examined for their ability to bind [^35 S]-GTPγS. Maximum agonist-specific binding was measured in the presence of 1 μM human calcitonin, constitutive binding was measured in the presence of buffer alone. Peptide potencies (EC50 's for concentration response curves) were calculated by non-linear regression using Prism™ (version 2.01, GraphPAD Software, San Diego, Calif.).
[^35 S]-GTPγS C1a Agonist Studies
Evaluation of the agonist activity of compounds versus the C1a receptor was carried out as follows:
as §1
as §2, with “1993, FEBS Letters, 325:225-232).” for “1993).”
as §3
Assay buffer contained 1 μM GDP, 1 mM EDTA, 5 mM MgCl2, 20 mM Hepes, and 150 mM NaCl, pH 7.4. Membranes (7.5 μg membrane protein/well), [^35 S]-GTPγS (200 pM), and peptides were combined in 200 μL buffer in 96-well microtiter plates. After a 75 minute incubation at room temperature, well contents were harvested onto GF/B glass fiber pads using a Tomtec Mach II plate harvestor (Hamden, Conn.). Dried pads were combined with scintillant and counted on a Wallac LKB Beta Plate scintillation counter. For concentration response curves, samples were run in duplicate over a 6 log concentration range starting at 10^-6 M or 10^-7 M. Maximum agonist-specific binding was measured in the presence of 1 μM human calcitonin, constitutive binding was measured in the presence of buffer alone.
Peptide potencies (1C50 's for competitive binding, and EC50 's for concentration response curves) were calculated by non-linear regression using Prism (version 2.01, GraphPAD Software, San Diego, Calif.).

## CC(C)C[C@H](NC(=O)[C@H](CCCNC(=N)N)NC(=O)[C@H](CCC(N)=O)NC(=O)[C@@H](NC(=O)[C@H](C)NC(=O)[C@@H]1CSSC[C@H](NC(=O)[C@@H](N)CCCCN)C(=O)N[C@@H](CC(N)=O)C(=O)N[C@@H](C(C)C)C(=O)N[C@@H](C)C(=O)N[C@@H]([C@@H](C)O)C(=O)N1)[C@@H](C)O)C(=O)N[C@@H](C)C(=O)N[C@@H](CC(N)=O)C(=O)N[C@@H](Cc1ccccc1)C(=O)N[C@@H](CC(C)C)C(=O)N[C@H](C(=O)N[C@@H](CCCNC(=N)N)C(=O)N[C@@H](CO)C(=O)N[C@@H](CO)C(=O)NCC(=O)N[C@@H](Cc1ccc(O)cc1)C(N)=O)C(C)C [Example 2] (H-KCNVATCATQRLANFLVRSSGY-NH2; disulfide 2-7)
[1]
  IC50: 0.128 nM
[2]
  EC50: 2.6 nM

## CC(C)CCC(=O)N[C@@H](CC(C)C)C(=O)N[C@@H](CO)C(=O)N[C@H](C(=O)N[C@@H](C)C(=O)N[C@@H](C)C(=O)N[C@H](C(=O)N[C@@H](C)C(=O)N[C@@H](CCCNC(=N)N)C(=O)N[C@@H](CC(C)C)C(=O)N[C@@H](C)C(=O)N[C@@H](C)C(=O)N[C@@H](Cc1ccccc1)C(=O)N[C@@H](CC(C)C)C(=O)N[C@@H](C)C(=O)N[C@@H](CCCNC(=N)N)C(=O)N[C@@H](CO)C(N)=O)[C@@H](C)O)[C@@H](C)O [Example 4] ({Pentanoyl(4-Me)}-LSTAATARLAAFLARS-NH2)
[1]
  IC50: 0.66 nM
[2]
  EC50: 0.73 nM

## CC(C)C[C@H](NC(=O)[C@H](CCCNC(=N)N)NC(=O)[C@H](C)NC(=O)[C@@H](NC(=O)[C@H](C)NC(=O)[C@@H]1CSSC[C@H](N)C(=O)N[C@@H](CC(N)=O)C(=O)N[C@@H]([C@@H](C)O)C(=O)N[C@@H](C)C(=O)N[C@@H]([C@@H](C)O)C(=O)N1)[C@@H](C)O)C(=O)N[C@@H](C)C(=O)N[C@@H](C)C(=O)N[C@@H](Cc1ccccc1)C(=O)N[C@@H](CC(C)C)C(=O)N[C@@H](C)C(=O)N[C@@H](CCCNC(=N)N)C(N)=O [Example 7] (H-CNTATCATARLAAFLAR-NH2; disulfide 1-6)
[1]
  IC50: 2.7 nM
[2]
  EC50: 2.2 nM

## CC(C)C[C@H](NC(=O)[C@H](CCCNC(=N)N)NC(=O)[C@H](CCC(N)=O)NC(=O)[C@@H](NC(=O)[C@H](C)NC(=O)[C@@H]1CSSC[C@H](NC(=O)[C@@H](N)CCCCN)C(=O)N[C@@H](CC(N)=O)C(=O)N[C@@H]([C@@H](C)O)C(=O)N[C@@H](C)C(=O)N[C@@H]([C@@H](C)O)C(=O)N1)[C@@H](C)O)C(=O)N[C@@H](C)C(=O)N[C@@H](C)C(=O)N[C@@H](Cc1ccccc1)C(=O)N[C@@H](CC(C)C)C(=O)N[C@H](C(=O)N[C@@H](CCCNC(=N)N)C(=O)N[C@@H](CO)C(=O)N[C@@H](CO)C(=O)NCC(=O)N[C@@H](Cc1ccc(O)cc1)C(N)=O)C(C)C [Example 8] (H-KCNTATCATQRLAAFLVRSSGY-NH2; disulfide 2-7)
[1]
  IC50: 3.4 nM
[2]
  EC50: 4.4 nM

## CC(C)C[C@H](NC(=O)[C@H](CCCNC(=N)N)NC(=O)[C@H](CCC(N)=O)NC(=O)[C@@H](NC(=O)[C@H](C)NC(=O)[C@@H]1CSSC[C@H](NC(=O)[C@@H](N)CCCCN)C(=O)N[C@@H](CC(N)=O)C(=O)N[C@@H]([C@@H](C)O)C(=O)N[C@@H](C)C(=O)N[C@@H]([C@@H](C)O)C(=O)N1)[C@@H](C)O)C(=O)N[C@@H](C)C(=O)N[C@@H](CC(N)=O)C(=O)N[C@@H](Cc1ccccc1)C(=O)N[C@@H](CC(C)C)C(=O)N[C@H](C(=O)N[C@@H](CCCNC(=N)N)C(=O)N[C@@H](CO)C(=O)NCC(=O)N[C@@H](Cc1ccc(O)cc1)C(N)=O)C(C)C [Example 9] (H-KCNTATCATQRLANFLVRSGY-NH2; disulfide 2-7)
[1]
  IC50: 4.1 nM
[2]
  EC50: 8.6 nM

## CC(C)C[C@H](NC(=O)[C@H](CCCNC(=N)N)NC(=O)[C@H](CCC(N)=O)NC(=O)[C@@H](NC(=O)[C@H](C)NC(=O)[C@@H]1CSSC[C@H](NC(=O)[C@@H](N)CCCCN)C(=O)N[C@@H](CC(N)=O)C(=O)N[C@@H]([C@@H](C)O)C(=O)N[C@@H](C)C(=O)N[C@@H]([C@@H](C)O)C(=O)N1)[C@@H](C)O)C(=O)N[C@@H](C)C(=O)N[C@@H](CC(N)=O)C(=O)N[C@@H](Cc1ccccc1)C(=O)N[C@@H](CC(C)C)C(=O)N[C@H](C(=O)N[C@@H](CCCNC(=N)N)C(=O)N[C@@H](C)C(=O)N[C@@H](CO)C(=O)NCC(=O)N[C@@H](Cc1ccc(O)cc1)C(N)=O)C(C)C [Example 10] (H-KCNTATCATQRLANFLVRASGY-NH2; disulfide 2-7)
[1]
  IC50: 4.7 nM
[2]
  EC50: 8 nM

## CC(C)C[C@H](NC(=O)[C@H](CCCNC(=N)N)NC(=O)[C@H](CCC(N)=O)NC(=O)[C@@H](NC(=O)[C@H](C)NC(=O)[C@@H]1CSSC[C@H](NC(=O)[C@@H](N)CCCCN)C(=O)N[C@@H](CC(N)=O)C(=O)N[C@@H]([C@@H](C)O)C(=O)N[C@@H](C)C(=O)N[C@@H]([C@@H](C)O)C(=O)N1)[C@@H](C)O)C(=O)N[C@@H](C)C(=O)N[C@@H](CC(N)=O)C(=O)N[C@@H](Cc1ccccc1)C(=O)N[C@@H](CC(C)C)C(=O)N[C@H](C(=O)N[C@@H](Cc1c[nH]cn1)C(=O)N[C@@H](CO)C(=O)N[C@@H](CO)C(=O)NCC(=O)N[C@@H](Cc1ccc(O)cc1)C(N)=O)C(C)C [Example 11] (H-KCNTATCATQRLANFLVHSSGY-NH2; disulfide 2-7)
[1]
  IC50: 8.3 nM
[2]
  EC50: 14 nM
